Tested on: DGI-TAUP301L cells (ER stress induced by mutant TAU-P301L protein)
Experiment: ER stress reporter (KAR2 UPRE-GFP) screening assay in DGI-TAUP301L yeast cells; fluorescence normalised to cell density
Format: cell-based, Saccharomyces cerevisiae
Conditions: 2% galactose, 2 days at 30° C.
Method: Screening was conducted with a DGI-TAUP301L yeast cell expressing the mutant TAU-P301L protein under the control of GAL1 promoter and containing the ER stress sensor reporter plasmid with GFP as reporter, described above in the “Construction of the ER sensor reporter plasmid” section. […] The resulting fluorescent signal was normalised to cell density and the normalised fluorescence was used as a direct measure of ER stress level in the cells.
A commercial library containing 50 080 small molecules was screened along with 5 dipeptide molecules from an academic collaboration and 208 extracts from a proprietary natural extract collection. Active compounds, with the potential to modulate the deleterious effects of TAU-P301L expression, were identified by their ability to decrease normalised fluorescence, without influencing growth. Growth was determined by measuring optical density (OD) of a culture.
DGI-TAUP301L cells were dispensed into 96-well plates on minimum medium containing 2% galactose to fully express the mutant protein, together with 10 μM candidate compound. All liquid handing steps were performed using a Janus Automated Workstation (Perkin Elmer). Plates were incubated for 2 days at 30° C. under shaking in a Liconic STX40 Automated Incubator. Growth and fluorescence were monitored with a Victor 3V microplate reader (PE). […]
(§1) DGI-TAUP301L cells were pre-grown on a mixture of 2% galactose until reaching early exponential phase (OD=1-2). […] Growth and fluorescence were monitored for 2 days at 30° C. under agitation. […]
as §1, §1, §1

Structure (SMILES): C[S+](C)[O-] [DMSO]
- reduction of ER stress (2% DMSO): 35%

Structure (SMILES): C[N+](C)(C)CCO [Choline, choline]
- reduction of ER stress (0.4 M choline): 35%

Structure (SMILES): O=C(/C=C/c1ccccc1)NC(NC(=S)Nc1cccc2cccnc12)C(Cl)(Cl)Cl (stereo not drawn) [salubrinal]
- reduction of ER stress signal (100 μM salubrinal): ~50%

Reference: patent US8236490B2, “Screening method for compounds that reduce ER stress” (EM Biotecnologia S.A., priority 2007, dated 2012)
